PubChem BioAssay (NCI)
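These data come from cells grown in 96-well plates and exposed to compound for 48 hours at five concentrations. Definition used: TGI = concentration required for complete inhibition of growth.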

What was measured:
Assay in all cases: NCI anticancer screen, dose series, 48 h
EKVX NSCLC = tested on: EKVX NSCLC
HL-60(TB) leukemia = tested on: HL-60(TB) leukemia
M14 melanoma = tested on: M14 melanoma
MOLT-4 leukemia = tested on: MOLT-4 leukemia
PC-3 prostate = tested on: PC-3 prostate
RPMI-8226 leukemia = tested on: RPMI-8226 leukemia
SK-MEL-2 melanoma = tested on: SK-MEL-2 melanoma
SK-OV-3 ovarian = tested on: SK-OV-3 ovarian
UACC-257 melanoma = tested on: UACC-257 melanoma
UO-31 renal = tested on: UO-31 renal

With `CC(C)OC(=O)C(NC(=O)C(CC(=O)OCc1ccccc1)NC(=O)OCc1ccccc1)NC(=O)C1C(C)(C)CCC1(C)C` (stereo not given) the TGI (EKVX NSCLC) was 12.2 µM, the TGI (HL-60(TB) leukemia) was > 40.4 µM and the TGI (M14 melanoma) was > 57.1 µM. For the same molecule, the TGI (MOLT-4 leukemia) was > 51 µM, the TGI (PC-3 prostate) was 11.2 µM and the TGI (RPMI-8226 leukemia) was 24.2 µM. For the same molecule, the TGI (SK-MEL-2 melanoma) was 58.4 µM, the TGI (SK-OV-3 ovarian) was 10.4 µM and the TGI (UACC-257 melanoma) was > 60.8 µM. For the same molecule, the TGI (UO-31 renal) was 13.4 µM.

For `CC(=O)Oc1cc2c(cc1OCC(F)(F)F)[C@H]1CC[C@]3(C)[C@@H](OC(C)=O)CC[C@H]3[C@@H]1CC2=O`, the TGI (EKVX NSCLC) was > 72.1 µM, the TGI (HL-60(TB) leukemia) was 34.7 µM and the TGI (M14 melanoma) was > 78.6 µM. It also gave a TGI (MOLT-4 leukemia) of 38.8 µM, a TGI (PC-3 prostate) of 37.6 µM and a TGI (RPMI-8226 leukemia) of 68.8 µM. It also gave a TGI (SK-MEL-2 melanoma) of 44.7 µM, a TGI (SK-OV-3 ovarian) of 59.7 µM and a TGI (UACC-257 melanoma) of 72.8 µM. For the same molecule, the TGI (UO-31 renal) was 42.2 µM.

In the case of `C[C@H]1CCC/C=C/[C@@H]2C[C@H](OC3OC(CO)C(O)C(O)C3O)C[C@H]2[C@H](O)/C=C/C(=O)O1` (stereo not given in full), the TGI (EKVX NSCLC) is reported as > 100 µM, the TGI (HL-60(TB) leukemia) is reported as > 100 µM and the TGI (M14 melanoma) is reported as > 100 µM. For the same molecule, the TGI (MOLT-4 leukemia) was > 100 µM, the TGI (PC-3 prostate) was > 100 µM and the TGI (RPMI-8226 leukemia) was > 100 µM. For the same molecule, the TGI (SK-MEL-2 melanoma) was > 100 µM, the TGI (SK-OV-3 ovarian) was > 100 µM and the TGI (UACC-257 melanoma) was 78.9 µM. For the same molecule, the TGI (UO-31 renal) was > 100 µM.
